Measurements published in patent US20260130933A1, “PHARMACEUTICAL COMPOSITION FOR PREVENTION OR TREATMENT OF NEPHROPATHY AND/OR DIABETES MELLITUS, COMPRISING ENAVOGLIFLOZIN” (DAEWOONG PHARMACEUTICAL CO., LTD., priority 2022, published 2026).

Assay: Example 2: phase 3 trial, enavogliflozin 0.3 mg vs dapagliflozin 10 mg once a day for 24 weeks added to metformin in patients with type 2 diabetes (same efficacy, exploratory and safety endpoints)
Type: in vivo, human
Procedure: Subjects who met the inclusion/exclusion criteria were administered a placebo of the clinical trial drug under single-blind (subject blinding) conditions during a 2-week run-in period while continuing to receive metformin. […] The randomized subjects were administered two tablets of the clinical trial drug for each administration group once a day, and then visited the institution at weeks 6, 12, 18, and 24 during the 24-week administration period to conduct efficacy and safety evaluations.
• 1. Change in HbA1c at week 24 after administration of clinical trial drug compared to Visit 2 (randomization)
• 1. Change in HbA1c at each time point of weeks 6, 12, and 18 after administration of clinical trial drug compared to Visit 2 (randomization) • 2. Change in FPG at each time point of weeks 6, 12, 18, and 24 after administration of clinical trial drug compared to Visit 2 (randomization) • 3. Proportion of subjects achieving HbA1c<7% at each time point of weeks 6, 12, 18, and 24 after administration of clinical trial drug • 4. Proportion of subjects achieving HbA1c<6.5% at each time point of weeks 6, 12, 18, and 24 after administration of clinical trial drug • 5. Proportion of subjects achieving therapeutic response (HbA1c change (HbA1c at Visit 2-HbA1c at each evaluation time point)>0.5% or HbA1c<7% at each evaluation time point compared to Visit 2 (randomization)) at each time point of weeks 6, 12, 18 and 24 after administration of clinical trial drug
• 1. Change in fasting c-peptide at each time point of weeks 6, 12, 18, and 24 after administration of clinical trial drug compared to Visit 2 (randomization) • 2. Change in body weight at each time point of weeks 6, 12, 18, and 24 after administration of clinical trial drug compared to Visit 2 (randomization) • 3. Change in fasting lipid concentration (total cholesterol, LDL-C, HDL-C, and triglycerides) at each time point of weeks 6, 12, 18, and 24 after administration of clinical trial drug compared to Visit 2 (randomization) • 4. Changes in systolic or diastolic blood pressure at each time point of weeks 6, 12, 18, and 24 after administration of clinical trial drug compared to Visit 2 (randomization) • 5. Changes in β-cell function and insulin resistance measured by HOMA-β and HOMA-IR at each time point of weeks 6, 12, 18, and 24 after administration of clinical trial drug compared to Visit 2 (randomization) • 6. Changes in renal function-related indicators (UACR, UGCR) measured by UACR at each time point of weeks 6, 12, 18, and 24 after administration of clinical trial drug compared to Visit 2 (randomization) • 7. Changes in obesity-related indicators (adiponectin, leptin) at each time point of weeks 6, 12, 18, and 24 after administration of clinical trial drug compared to Visit 2 (randomization)

[1] = Baseline, modified per-protocol set 1, enavogliflozin 0.3 mg, dapagliflozin 10 mg
[2] = Baseline, per-protocol set, enavogliflozin 0.3 mg, dapagliflozin 10 mg

CCOc1ccc(Cc2cc([C@@H]3O[C@H](CO)[C@@H](O)[C@H](O)[C@H]3O)ccc2Cl)cc1 [Dapagliflozin, reference compound]
Incidence of serious adverse drug reactions (24 weeks): 7 case | Adiponectin, Mean (SD) (Baseline, PPS): 6.6 µg/mL | Adiponectin, Median (Baseline, PPS): 5.94 µg/mL | HOMA-IR, Mean (SD) (Baseline, PPS): 3.85 | HOMA-IR, Median (Baseline, PPS): 3.05 | HOMA-β, Mean (SD) (Baseline, PPS): 44.44 | HOMA-β, Median (Baseline, PPS): 38.75 | Leptin, Mean (SD) (Baseline, PPS): 11.76 ng/mL | Leptin, Median (Baseline, PPS): 8.32 ng/mL | UACR, Mean (SD) (Baseline, PPS): 57.42 g/kg | UACR, Median (Baseline, PPS): 15.50 g/kg | UGCR, Mean (SD) (Baseline, PPS): 1.83 mg/mg | UGCR, Median (Baseline, PPS): 0.15 mg/mg | HDL-C, Mean (SD) (Baseline, mPPS1): 46.90(9.17) mg/dL | HDL-C, Median (Baseline, mPPS1): 46.00 mg/dL | LDL-C, Mean (SD) (Baseline, mPPS1): 76.16(26.27) mg/dL | LDL-C, Median (Baseline, mPPS1): 75.00 mg/dL | Triglycerides, Mean (SD) (Baseline, mPPS1): 132.92(75.63) mg/dL | Triglycerides, Median (Baseline, mPPS1): 115.00 mg/dL | Diastolic blood pressure, Mean (SD) (Baseline, mPPS2): 75.92 mmHg | Diastolic blood pressure, Median (Baseline, mPPS2): 75.00 mmHg | Systolic blood pressure, Mean (SD) (Baseline, mPPS2): 127.44(14.12) mmHg | Systolic blood pressure, Median (Baseline, mPPS2): 127.00 mmHg | fasting Total cholesterol, Mean (SD) [1]: 137.87(26.64) mg/dL | fasting Total cholesterol, Median [1]: 139.00 mg/dL | FPG, Mean (SD) [2]: 149.33 mg/dL | FPG, Median [2]: 142.00 mg/dL | HbA1c, Mean (SD) [2]: 7.68% | HbA1c, Median [2]: 7.49% | body weight, Mean (SD) [2]: 70.52(11.81) kg | body weight, Median [2]: 69.70 kg | fasting c-peptide, Mean (SD) [2]: 0.74(0.23) ng/mL | fasting c-peptide, Median [2]: 0.71 ng/mL | Adiponectin change from baseline, ANCOVA LS mean (SE) (Week 6, PPS): 0.8 µg/mL | Adiponectin change from baseline, Mean (SD) (Week 6, PPS): 0.77 µg/mL | Adiponectin change from baseline, Median (Week 6, PPS): 0.51 ng/mL | Adiponectin, Mean (SD) (Week 6, PPS): 7.4 µg/mL | Adiponectin, Median (Week 6, PPS): 6.36 µg/mL | HOMA-IR change from baseline, ANCOVA LS mean (SE) (Week 6, PPS): −1.31 | HOMA-IR change from baseline, Mean (SD) (Week 6, PPS): −1.46 | HOMA-IR change from baseline, Median (Week 6, PPS): −1.03 | HOMA-IR, Mean (SD) (Week 6, PPS): 2.34 | HOMA-IR, Median (Week 6, PPS): 2.07 | HOMA-β change from baseline, ANCOVA LS mean (SE) (Week 6, PPS): −1.79 | HOMA-β change from baseline, Mean (SD) (Week 6, PPS): −2.83 | HOMA-β change from baseline, Median (Week 6, PPS): 1.10 | HOMA-β, Mean (SD) (Week 6, PPS): 41.10 | HOMA-β, Median (Week 6, PPS): 42.20 | Leptin change from baseline, ANCOVA LS mean (SE) (Week 6, PPS): -1.62 ng/mL | Leptin change from baseline, Mean (SD) (Week 6, PPS): -1.61 ng/mL | Leptin change from baseline, Median (Week 6, PPS): -1.46 ng/mL | Leptin, Mean (SD) (Week 6, PPS): 9.85 ng/mL | Leptin, Median (Week 6, PPS): 5.51 ng/mL | UACR change from baseline, ANCOVA LS mean (SE) (Week 6, PPS): 8.13 g/kg | UACR change from baseline, Mean (SD) (Week 6, PPS): 4.49 g/kg | UACR change from baseline, Median (Week 6, PPS): 0.00 g/kg | UACR, Mean (SD) (Week 6, PPS): 62.95 g/kg | UACR, Median (Week 6, PPS): 13.90 g/kg | UGCR change from baseline, ANCOVA LS mean (SE) (Week 6, PPS): 50.10 mg/mg | UGCR change from baseline, Mean (SD) (Week 6, PPS): 47.54 mg/mg | UGCR change from baseline, Median (Week 6, PPS): 42.30 mg/mg | UGCR, Mean (SD) (Week 6, PPS): 48.64 mg/mg | UGCR, Median (Week 6, PPS): 43.08 mg/mg | HDL-C change from baseline, ANCOVA LS mean (SE) (Week 6, mPPS1): 1.60(0.61) mg/dL | HDL-C change from baseline, Mean (SD) (Week 6, mPPS1): 1.94(5.62) mg/dL | HDL-C change from baseline, Median (Week 6, mPPS1): 1.00 mg/dL | HDL-C, Mean (SD) (Week 6, mPPS1): 48.83(10.55) mg/dL | HDL-C, Median (Week 6, mPPS1): 48.50 mg/dL | LDL-C change from baseline, ANCOVA LS mean (SE) (Week 6, mPPS1): 4.20(1.95) mg/dL | LDL-C change from baseline, Mean (SD) (Week 6, mPPS1): 4.87(19.92) mg/dL | LDL-C change from baseline, Median (Week 6, mPPS1): 3.00 mg/dL | LDL-C, Mean (SD) (Week 6, mPPS1): 81.20(28.87) mg/dL | LDL-C, Median (Week 6, mPPS1): 76.50 mg/dL | Triglycerides change from baseline, ANCOVA LS mean (SE) (Week 6, mPPS1): −10.14(7.09) mg/dL | Triglycerides change from baseline, Mean (SD) (Week 6, mPPS1): −11.86(54.93) mg/dL | Triglycerides change from baseline, Median (Week 6, mPPS1): -2.00 mg/dL | Triglycerides, Mean (SD) (Week 6, mPPS1): 120.41(53.12) mg/dL | Triglycerides, Median (Week 6, mPPS1): 104.50 mg/dL | Diastolic blood pressure change from baseline, ANCOVA LS mean (SE) (Week 6, mPPS2): −1.47 mmHg | Diastolic blood pressure change from baseline, Mean (SD) (Week 6, mPPS2): −1.10 mmHg | Diastolic blood pressure change from baseline, Median (Week 6, mPPS2): 0.00 mmHg | Diastolic blood pressure, Mean (SD) (Week 6, mPPS2): 74.57 mmHg | Diastolic blood pressure, Median (Week 6, mPPS2): 75.00 mmHg | Systolic blood pressure change from baseline, ANCOVA LS mean (SE) (Week 6, mPPS2): −2.71(1.06) mmHg | Systolic blood pressure change from baseline, Mean (SD) (Week 6, mPPS2): −1.98(11.14) mmHg | Systolic blood pressure change from baseline, Median (Week 6, mPPS2): −1.50 mmHg | Systolic blood pressure, Mean (SD) (Week 6, mPPS2): 125.24(13.01) mmHg | Systolic blood pressure, Median (Week 6, mPPS2): 126.00 mmHg | Adiponectin change from baseline, ANCOVA LS mean (SE) (Week 12, PPS): 1.02 µg/mL | Adiponectin change from baseline, Mean (SD) (Week 12, PPS): 1.08 µg/mL | Adiponectin change from baseline, Median (Week 12, PPS): 0.83 ng/mL | Adiponectin, Mean (SD) (Week 12, PPS): 7.76 µg/mL | Adiponectin, Median (Week 12, PPS): 6.53 µg/mL | HOMA-IR change from baseline, ANCOVA LS mean (SE) (Week 12, PPS): −1.60 | HOMA-IR change from baseline, Mean (SD) (Week 12, PPS): −1.74 | HOMA-IR change from baseline, Median (Week 12, PPS): −1.27 | HOMA-IR, Mean (SD) (Week 12, PPS): 2.17 | HOMA-IR, Median (Week 12, PPS): 1.89 | HOMA-β change from baseline, ANCOVA LS mean (SE) (Week 12, PPS): 8.75 | HOMA-β change from baseline, Mean (SD) (Week 12, PPS): 8.97 | HOMA-β change from baseline, Median (Week 12, PPS): 4.55 | HOMA-β, Mean (SD) (Week 12, PPS): 53.77 | HOMA-β, Median (Week 12, PPS): 45.50
